Measurements taken from US11384078B2, “5,6-fused-bicyclic compounds and compositions for the treatment of parasitic diseases” (NOVARTIS AG, priority 2017, dated 2022).
pEC50: −log10 of the molar value.

How the values were obtained:
Assay type in all cases: cell-based
[1] = test system: Leishmania donovani axenic amastigote; experiment: In vitro assay for growth inhibition of Leishmania donovani axenic amastigote (Cell TiterGlo luminescence); details: Leishmania donovani, L. donovani axenic amastigotes in vitro; read-out: L. donovani amastigotes EC50
Summary of the method: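 Axenic L. donovani amastigotes (9600/well) grown at 37 °C, 5% CO2 in supplemented RPMI 1640, pH 5.5, with compound added from DMSO. After two days, viability read by CellTiter-Glo luminescence against DMSO and control-compound wells.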

[2] = test system: L. donovani HU3 strain in mouse peritoneal macrophages; experiment: Assay for inhibition of parasitemia of Leishmania donovani in mouse macrophages (SYBR Green nuclei count, high-content imaging); details: Leishmania donovani, Peritoneal macrophage, L. donovani in mouse peritoneal macrophages; read-out: L. donovani in Mouse Macrophages EC50
Summary of the method: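 Peritoneal macrophages from uninfected BALB/c mice were infected for 24 h with spleen-derived L. donovani HU3 (4×10^5 parasites per 2×10^4 macrophages), then cultured with compound for 5 days at 37° C, 5% CO2. After fixation and permeabilization, parasite nuclei were stained with SYBR Green and counted by high-content imaging.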

[3] = test system: Trypanosoma cruzi amastigotes cultured in 3T3 fibroblast cells; experiment: Assay for growth inhibition of kinetoplastid parasite Trypanosoma cruzi (beta-galactosidase Tulahuen strain, CPRG readout); details: Trypanosoma cruzi, Fibroblast, T. cruzi amastigotes in 3T3 fibroblast cells; read-out: Buckner infectious T. cruzi EC50
Summary of the method: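 3T3 fibroblasts (1,000 cells/well) plated overnight, treated with compound in DMSO, then infected with 10,000 Lac-Z-expressing Tulahuen trypomastigotes. After 6 days, 0.6 mM CPRG with 0.6% NP-40 added for 2 h at room temperature; absorbance gives relative intracellular amastigote numbers. Benznidazole and nifurtimox serve as positive controls.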

[4] = test system: Trypanosoma brucei brucei (Lister 427) strain; experiment: Assay for growth inhibition against Trypanosoma brucei brucei (Cell TiterGlo ATP luminescence); details: Trypanosoma brucei, T. brucei brucei (Lister 427); read-out: T. Brucei (HAT) EC50
Summary of the method: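 T. b. brucei Lister 427 grown in HMI-9 with 10% FBS and 10% serum plus, seeded at 10,000 parasites/mL with 10-point threefold compound dilutions in duplicate, 37 °C for 2 days. Viability read as ATP luminescence 30 min after Cell TiterGlo; IC50 versus untreated controls.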

| SMILES | pEC50 [1] | pEC50 [2] | pEC50 [3] | pEC50 [4] |
| --- | --- | --- | --- | --- |
| Cc1cn(-c2cnc3nn(-c4cc(NC(=O)N5CC(F)C5)ccc4F)cc3c2)cn1 [Compound 328, 3-fluoro-N-{4-fluoro-3-[5-(4-methyl-1H-imidazol-1-yl)-2H-pyrazolo[3,4-b]pyridin-2-yl]phenyl}azetidine-1-carboxamide] | 7.64 | 6.80 | 7.08 | 7.77 |
| O=C(Nc1ccc(F)c(-n2cc3cc(-c4ccc(F)cn4)cnc3n2)c1)N1CC(F)C1 [Compound 329, 3-fluoro-N-{4-fluoro-3-[5-(5-fluoropyridin-2-yl)-2H-pyrazolo[3,4-b]pyridin-2-yl]phenyl}azetidine-1-carboxamide] | 9.00 | 8.70 | 9.00 | 8.70 |
| O=C(Nc1ccc(F)c(-n2cc3cc(-c4ccc(F)cn4)cnc3n2)c1)N1CCC1 [Compound 330, N-{4-fluoro-3-[5-(5-fluoropyridin-2-yl)-2H-pyrazolo[3,4-b]pyridin-2-yl]phenyl}azetidine-1-carboxamide] | 9.00 | 8.70 | 9.00 | 9.00 |
| CN(C)c1cnc2nn(-c3cc(NC(=O)C4CC4)ccc3F)cc2c1 [Compound 331, N-{3-[5-(dimethylamino)-2H-pyrazolo[3,4-b]pyridin-2-yl]-4-fluorophenyl}cyclopropanecarboxamide] | 6.66 | 6.04 | 6.86 | 6.69 |
| O=C(Nc1ccc(F)c(-n2cc3cc(-c4ncccc4F)cnc3n2)c1)C1CC1 [Compound 332, N-{4-fluoro-3-[5-(3-fluoropyridin-2-yl)-2H-pyrazolo[3,4-b]pyridin-2-yl]phenyl}cyclopropanecarboxamide] | 7.55 | 7.12 | 7.82 | 7.42 |
| Cc1cccnc1-c1cnc2nn(-c3cc(NC(=O)c4oc(CO)nc4C)ccc3F)cc2c1 [Compound 334, N-(4-fluoro-3-(5-(3-methylpyridin-2-yl)-2H-pyrazolo[3,4-b]pyridin-2-yl)phenyl)-2-(hydroxymethyl)-4-methyloxazole-5-carboxamide] | 6.63 | 5.73 | 5.84 | 6.57 |
| Cc1nc(C)c(C(=O)Nc2ccc(F)c(-n3cc4cc(-c5ncccc5CO)cnc4n3)c2)o1 [Compound 335] | 7.89 | 6.95 | 6.33 | 7.44 |
| O=C(Nc1ccc(F)c(-n2cc3cc(-c4ccccn4)cnc3n2)c1)N1CCCC1 [Compound 336, N-{4-fluoro-3-[5-(pyridin-2-yl)-2H-pyrazolo[3,4-b]pyridin-2-yl]phenyl}pyrrolidine-1-carboxamide] | 8.70 | 8.40 | 9.00 | 9.00 |
| O=C(Nc1ccc(F)c(-n2cc3cc(N4CC(F)(F)C4)cnc3n2)c1)N1CCCC1 [Compound 338, N-{3-[5-(3,3-difluoroazetidin-1-yl)-2H-pyrazolo[3,4-b]pyridin-2-yl]-4-fluorophenyl}pyrrolidine-1-carboxamide] | 8.30 | 8.70 | 8.52 | 8.52 |
| O=C(Nc1ccnc(-n2cc3cc(Br)cnc3n2)c1)N1CC[C@@H](F)C1 [Compound 340, (3R)-N-(2-{5-bromo-2H-pyrazolo[3,4-b]pyridin-2-yl}pyridin-4-yl)-3-fluoropyrrolidine-1-carboxamide] | 6.65 | 7.06 | 7.21 | 7.46 |
| O=C(Nc1ccnc(-n2cc3cc(-c4ccccn4)cnc3n2)c1)N1CCC1 [Compound 341, N-{2-[5-(pyridin-2-yl)-2H-pyrazolo[3,4-b]pyridin-2-yl]pyridin-4-yl}azetidine-1-carboxamide] | 8.22 | 7.48 | 8.00 | 8.05 |
| O=C(Nc1ccnc(-n2cc3cc(-c4ccccn4)cnc3n2)c1)N1CC(F)C1 [Compound 342, 3-fluoro-N-{2-[5-(pyridin-2-yl)-2H-pyrazolo[3,4-b]pyridin-2-yl]pyridin-4-yl}azetidine-1-carboxamide] | 8.15 | 7.62 | 7.77 | 8.00 |
| O=C(Nc1cccc(-n2cc3cc(N4CC(F)(F)C4)cnc3n2)c1)N1CCC1 [Compound 343, N-{3-[5-(3,3-difluoroazetidin-1-yl)-2H-pyrazolo[3,4-b]pyridin-2-yl]phenyl}azetidine-1-carboxamide] | 8.00 | 7.49 | 7.85 | 8.05 |
| O=C(Nc1cccc(-n2cc3cc(-c4ccccn4)cnc3n2)c1)N1CCC1 [Compound 344, N-{3-[5-(pyridin-2-yl)-2H-pyrazolo[3,4-b]pyridin-2-yl]phenyl}azetidine-1-carboxamide] | 8.70 | 8.30 | 8.52 | 9.00 |
| O=C(Nc1ccc(F)c(-n2cc3cc(-c4ccccn4)cnc3n2)c1)c1cnccn1 [Compound 345, N-{4-fluoro-3-[5-(pyridin-2-yl)-2H-pyrazolo[3,4-b]pyridin-2-yl]phenyl}pyrazine-2-carboxamide] | 7.96 | 7.48 | 8.40 | 8.30 |
| O=C(Nc1ccc(F)c(-n2cc3cc(-c4ccccn4)cnc3n2)c1)C1CC12CC2 (centres unmarked) [Compound 346, N-{4-fluoro-3-[5-(pyridin-2-yl)-2H-pyrazolo[3,4-b]pyridin-2-yl]phenyl}spiro[2.2]pentane-1-carboxamide] | 6.62 | 6.81 | 7.47 | 7.39 |
| CC1(C)C=C(C(=O)Nc2ccc(F)c(-n3cc4cc(-c5ccccn5)cnc4n3)c2)C1 [Compound 347, N-{4-fluoro-3-[5-(pyridin-2-yl)-2H-pyrazolo[3,4-b]pyridin-2-yl]phenyl}-3,3-dimethylcyclobut-1-ene-1-carboxamide] | 8.15 | 7.82 | 8.70 | 8.15 |
| N#CC1(C(=O)Nc2ccc(F)c(-n3cc4cc(-c5ccccn5)cnc4n3)c2)CC1 [Compound 348, 1-cyano-N-{4-fluoro-3-[5-(pyridin-2-yl)-2H-pyrazolo[3,4-b]pyridin-2-yl]phenyl}cyclopropane-1-carboxamide] | 6.46 | 6.02 | 6.85 | 6.95 |
| Cc1cccnc1-c1cnc2nn(-c3cc(NC(=O)C4=CC(C)(C)C4)ccc3F)cc2c1 [Compound 350, N-{4-fluoro-3-[5-(3-methylpyridin-2-yl)-2H-pyrazolo[3,4-b]pyridin-2-yl]phenyl}-3,3-dimethylcyclobut-1-ene-1-carboxamide] | 7.80 | 7.24 | 7.80 | 7.55 |
| Cc1nc(C)c(C(=O)Nc2ccc(F)c(-n3cc4cc(C(C)C)cnc4n3)c2)o1 [Compound 351, N-(4-fluoro-3-(5-isopropyl-2H-pyrazolo[3,4-b]pyridin-2-yl)phenyl)-2,4-dimethyloxazole-5-carboxamide] | 7.31 | 7.62 | 7.82 | 7.51 |
